The subject of test [1] is Guinea-Pig Bladder (GPB) Cells. In words: Membrane Hyperpolarization (MHP) assay, DiBAC(4)3 / FLIPR. The following applies: for EC50: membrane hyperpolarization, GPB cells; for Emax: read-out: Maximal Response (% P1075), maximal steady-state hyperpolarization, normalized to 10 μM P1075 (100%); for Maximal Response (% P1075): maximal steady-state hyperpolarization, normalized to 10 μM P1075 (100%).

The subject of test [2] is Landrace Pig Bladder. Kind of test: Functional potassium channel opening activity in isolated bladder strips (field-stimulated twitch). Particulars: for Index: ED50 for P1075 divided by ED50 for the test agonist, averaged over tissues; for Emax / EC50: Sus scrofa; for Emax: maximal efficacy relative to P1075, field stimulated bladder strips; for EC50: negative logarithm of ED50, read-out: pD2 (converted). As for the experimental part:
Compounds were evaluated for functional potassium channel opening activity using tissue strips obtained from Landrace pig bladders. Landrace pig bladders were obtained from female Landrace pigs of 9-30 kg. Landrace pigs were euthanized with an intraperitoneal injection of pentobarbital solution, Somlethal®, J. A. Webster Inc. Sterling Mass. The entire bladder was removed and immediately placed into Krebs Ringer bicarbonate solution (composition, mM: NaCl, 120; […] Dextrose, 4.7; […] Propranolol (0.004 mM) was included in all of the assays to block β-adrenoceptors. The trigonal and dome portions were […], Strips 3-5 […] (mm) wide and 20 mm long were prepared from the remaining tissue cut in a circular fashion. The mucosal layer was removed. One end was fixed to a stationary glass rod and the other to a Grass FT03 transducer at a basal preload of 1.0 g. Two parallel platinum electrodes were included in the stationary glass trod to provide field stimulation of 0.05 Hz, 0.5 milli-seconds at 20 volts. […] Tissues were allowed to equilibrate for at least 60 minutes and primed with 80 mM KCl. A control concentration response curve (cumulative) was generated for each tissue using the potassium channel opener […] as the control agonist. […] After a 60 minute rinsing period, a concentration response curve (cumulative) was generated for the test agonist in the same fashion as that used for the control agonist […]. The maximal efficacy of each compounds (expressed as % relative to […]) is reported. The amount of agent necessary to cause 50% of the agent's maximal response (ED50) was calculated using “ALLFIT” (DeLean et al., Am. J. […] Agonist potencies were also expressed as an index relative to […]. The index was calculated by dividing the ED50 for […] by the ED50 for the test agonist in a given tissue. Each tissue was used for only one test agonist, and the indices obtained from each tissue were averaged to provide an average index of potency.

Counter-ions that a name gives are not always drawn.

As for `O=C1COCC2=C1C(c1ccc(Cl)c([N+](=O)[O-])c1)C1=C(CCNC1=O)N2` (stereo not shown) [Example 47, 10-(4-chloro-3-nitrophenyl)-3,4,6,10-tetrahydro-2H-pyrano[3,4-b][1,6]naphthyridine-1,9(5H,8H)-dione], in test [1] (Cavia porcellus), the EC50 is 0.49 µM and the Emax was found to be 91%. In the case of `O=C1COCC2=C1C(c1ccc(Cl)c(C(F)(F)F)c1)C1=C(CCNC1=O)N2` (stereo not shown) [Example 46, 10-[4-chloro-3-(trifluoromethyl)phenyl]-3,4,6,10-tetrahydro-2H-pyrano[3,4-b][1,6]naphthyridine-1,9(5H,8H)-dione], in test [1] (Cavia porcellus), the EC50 came to 0.34 µM and the Emax was 83%. As for `N#Cc1cccc(C2C3=C(COCC3=O)NC3=C2S(=O)(=O)CC3)c1` (stereo not shown) [Example 14, 9-(3-cyanophenyl)-2,3,5,9-tetrahydro-4H-pyrano[3,4-b]thieno[2,3-e]pyridin-8(7H)-one 1,1-dioxide], in test [1], the “Maximal Response (% P1075)” value worked out at 99 % P1075 and the EC50 was found to be 0.4 µM. For `O=C1COCC2=C1C(c1ccc(Br)c(Br)c1)C1=C(CCNC1=O)N2` (stereo not shown) [Example 48, 10-(3,4-dibromophenyl)-3,4,6,10-tetrahydro-2H-pyrano[3,4-b][1,6]naphthyridine-1,9(5H,8H)-dione], in test [1] (Cavia porcellus), the EC50 is 0.084 µM and the Emax came out at 91%. Regarding `O=C1COCC2=C1C(c1ccc(Cl)c(Br)c1)C1=C(COCC1=O)N2` [Example 61, 5-(3-bromo-4-chlorophenyl)-5,10-dihydro-1H,3H-dipyrano[3,4-b:4,3-e]pyridine-4,6(7H,9H)-dione], in test [1], the “Maximal Response (% P1075)” value is 97 % P1075 and the EC50 turned out to be 0.0063 µM. As for `O=C1CNCC2=C1C(c1ccc(F)c(Br)c1)C1=C(CNCC1=O)N2` [Example 4, 5-(3-bromo-4-fluorophenyl)-2,3,5,8,9,10-hexahydropyrido [3,4-b][1,7]naphthyridine-4,6(1H,7H)-dione Dihydrochloride], the Emax in test [1] (Cavia porcellus) amounted to 21%.

As to `O=C1COCC2=C1C(c1ccc(F)c(Cl)c1)C1=C(CCNC1=O)N2` (stereo not shown) [Example 44, 10-(3-chloro-4-fluorophenyl)-3,4,6,10-tetrahydro-2H-pyrano [3,4-b][1,6]naphthyridine-1,9(5H,8H)-dione], the Emax in test [1] (Cavia porcellus) amounted to 96%. Consider `O=C1COCC2=C1C(c1ccc(Cl)c(Cl)c1)C1=C(CCNC1=O)N2` (stereo not shown) [Example 45, 10-(3,4-dichlorophenyl)-3,4,6,10-tetrahydro-2H-pyrano [3,4-b][1,6]naphthyridine-1,9(5H,8H)-dione], for which, in test [1] (Cavia porcellus), the EC50 is 0.2 µM and the Emax worked out at 85%. Take `Cc1ccc([C@H]2C3=C(COCC3=O)NC3=C2C(=O)OC3)cc1Br` (single isomer, unassigned) [Example 81]: in test [2], the Index is 0.23, the Emax amounted to 93% and the EC50 was 0.398 µM. Consider `O=C1COCC2=C1C(c1ccc(Cl)c(C(F)(F)F)c1)C1=C(COCC1=O)N2` [Example 56, 5-[4-chloro-3-(trifluoromethyl)phenyl]-5,10-dihydro-1H, 3H-dipyrano[3,4-b:4,3-e]pyridine-4,6(7H,9H)-dione], for which, in test [1], the “Maximal Response (% P1075)” value is 96 % P1075 and the EC50 is 0.015 µM. For the molecule `CN1CC2=C(C1=O)C(c1ccc(F)c(Br)c1)C1=C(COCC1=O)N2` (stereo not shown) [Example 26, 9-(3-bromo-4-fluorophenyl)-2-methyl-2,3,5,9-tetrahydropyrano[3,4-b]pyrrolo[3,4-e]pyridine-1,8(4H,7H)-dione], in test [1] (Cavia porcellus), the EC50 was 0.013 µM and the Emax stood at 90%. For `O=C1COCC2=C1C(c1csc([N+](=O)[O-])c1)C1=C(CCNC1=O)N2` (stereo not shown) [Example 49, 10-(5-nitro-3-thienyl)-3,4,6,10-tetrahydro-2H-pyrano [3,4-b][1,6]naphthyridine-1,9(5H,8H)-dione], in test [1] (Cavia porcellus), the EC50 is 2.3 µM and the Emax was found to be 85%. On to `Cc1ccc(C2C3=C(COCC3=O)NC3=C2C(=O)OC3)cc1I` (single isomer, unassigned) [Example 82, 9-(3-iodo-4-methylphenyl)-5,9-dihydro-3H-furo [3,4-b]pyrano[4,3-e]pyridine-1,8(4H,7H)-dione], for which, in test [2], the Index turned out to be 1.4, the Emax was 98% and the EC50 was 0.0316 µM. Turning to `O=C1COCC2=C1C(c1ccc(C(F)(F)F)c(I)c1)C1=C(COCC1=O)N2` [Example 62, 5-[3-iodo-4-(trifluoromethyl)phenyl]-5,10-dihydro-1H,3H-dipyrano[3,4-b:4,3-e]pyridine-4,6(7H,9H)-dione], in test [1], the “Maximal Response (% P1075)” value amounted to 77 % P1075 and the EC50 amounted to 0.058 µM.

As to `O=C1COCC2=C1C(c1ccc(Cl)c([N+](=O)[O-])c1)C1=C(CCS1(=O)=O)N2` (stereo not shown) [Example 17, 9-(4-chloro-3-nitrophenyl)-2,3,5,9-tetrahydro-4H-pyrano[3,4-b]thieno[2,3-e]pyridin-8(7H)-one 1,1-dioxide], in test [1] (Cavia porcellus), the Emax came to 93%. In test [1], this molecule registered an EC50 of 0.0042 µM. For the molecule `O=C1COCC2=C1C(c1ccc(F)c(Br)c1)C1=C(CCCS1(=O)=O)N2` (stereo not shown) [Example 21, 10-(3-bromo-4-fluorophenyl)-3,4,6,10-tetrahadro-2H,5H-pyrano[3,4-b]thioyrano[2,3-e]pyridin-9(8H)-one 1,1-dioxide], in test [1], the “Maximal Response (% P1075)” value is given as 79 % P1075 and the EC50 came to 0.066 µM. For `O=C1CCC2=C1C(c1ccc(F)c(Br)c1)C1=C(COCC1=O)N2` (stereo not shown) [Example 23, 5-(3-bromo-4-fluorophenyl)-5,7,8,9-tetrahydrocyclopenta [b]pyrano[4,3-e]pyridine-4,6(1H,3H)-dione], in test [1] (Cavia porcellus), the EC50 stood at 0.04 µM and the Emax was 82%.

Take `N#Cc1cccc(C2C3=C(COCC3=O)NC3=C2S(=O)(=O)CC3)c1` (single isomer, unassigned; (-)) [Example 16, (−) 9-(3-cyanophenyl)-2,3,5,9-tetrahydro-4H-pyrano [3,4-b]thieno[2,3-e]pyridin-8(7H)-one 1,1-dioxide]: in test [1], the “Maximal Response (% P1075)” value was 57 % P1075 and the EC50 was found to be 8.8 µM.

In the case of `CCC(C)(C)N=C(NC#N)Nc1cccnc1` [Example P1075, reference compound], the stimulated twitch result in test [2] (control agonist, 10^−9 to 10^−5 M, dose dependent) is “completely eliminated the stimulated twitch”. In the case of `O=C1COCC2=C1C(c1ccc(F)c(Br)c1)C1=C(COC1=O)N2` (stereo not shown) [Example 25, 9-(3-bromo-4-fluorophenyl)-5,9-dihydro-3H-furo [3,4-b]pyrano[4,3-e]pyridine-1,8(4H,7H)-dione], in test [1] (Cavia porcellus), the EC50 was found to be 0.0098 µM and the Emax was 106%. Regarding `O=C1CCC2=C1C(c1ccc(F)c(Br)c1)C1=C(CSCC1=O)N2` (stereo not shown) [Example 51, 5-(3-bromo-4-fluorophenol)-5,7,8,9-tetrahydrocyclopenta [b]thiopyrano[4,3-e]pyridine-4,6(1H,3H)-dione], in test [1], the “Maximal Response (% P1075)” value turned out to be 88 % P1075 and the EC50 was determined as 0.12 µM. As to `O=C1COCC2=C1C(c1ccc(Br)c(Cl)c1)C1=C(COCC1=O)N2` [Example 60, 5-(4-bromo-3-chlorophenyl)-5,10-dihydro-1H,3H-dipyrano[3,4-b:4,3-e]pyridine-4,6(7H,9H)-dione], in test [1], the “Maximal Response (% P1075)” value came to 88 % P1075 and the EC50 worked out at 0.023 µM.

The values are drawn from US6642222B2, “Pyrano, piperidino, and thiopyrano compounds and methods of use” (Abbott Laboratories, priority 1998, dated 2003).
